# Test results from patent publication US5130327A, “Indole derivatives” (Consejo Superior de Investigaciones Cientificas, priority 1989, dated 1992).
# Read-outs that look alike come from different tables or passages of the source.
# Legend:
# [1] = Potentiation of β-phenylethylamine; format: in vivo
# Description: (§1) The action mechanism was studied in acute and chronic treatments on the interaction response with clonidine, salbutamol (Richard, J. Intern. J. Neuroscience, 9:17-19, 1979) and tetrabenazine (Pletscher, A.: An. N.Y. Aca. Sci. 80:1039-1045, 1959), and the response to the potentiation with L-dopa, L-tryptophan, tryptamine (Jalfre, M. et al., Arch. Int. Pharmacodyn, 159:194-221, 1982) and β-phenylethylamine (Ortmann, et al, Psychopharmacol. 84:22-27, 1984).
# [2] = biological target: T1, Bovine Brain MAO B (Bos taurus, UniProt P56560); experiment: In vitro inhibition of MAO from bovine brain mitochondria, tyramine as substrate (form B); format: biochemical; conditions: pI50 = -log [I50], molar; bovine brain mitochondria, tyramine as substrate
# T1 construct: in vitro activity of MAO from bovine brain mitochondria; from tissue; host or cells: bovine brain mitochondria
# T1 sequence (P56560 1-520): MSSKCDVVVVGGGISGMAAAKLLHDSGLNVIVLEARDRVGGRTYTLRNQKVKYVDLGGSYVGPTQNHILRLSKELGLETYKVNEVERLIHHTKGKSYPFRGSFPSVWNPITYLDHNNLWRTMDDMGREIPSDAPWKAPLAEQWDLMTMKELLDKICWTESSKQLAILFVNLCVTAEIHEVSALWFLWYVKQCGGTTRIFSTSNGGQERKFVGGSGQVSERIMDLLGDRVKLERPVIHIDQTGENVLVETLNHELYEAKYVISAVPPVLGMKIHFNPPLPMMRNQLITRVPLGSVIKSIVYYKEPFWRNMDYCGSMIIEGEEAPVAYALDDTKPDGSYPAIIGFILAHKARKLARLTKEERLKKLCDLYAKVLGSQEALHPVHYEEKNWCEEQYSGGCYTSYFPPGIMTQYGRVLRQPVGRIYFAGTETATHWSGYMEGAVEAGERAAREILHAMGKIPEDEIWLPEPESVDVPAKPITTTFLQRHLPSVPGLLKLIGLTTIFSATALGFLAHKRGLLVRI
# Description: The following table illustrates the structure of particular compounds of the invention (1). It also gives specific pI50 values where pI50 =-log [I50 ] where [I50 ] is the molar concentration of test compound which inhibits 50% of the in vitro activity of MAO from bovine brain mitochondria using tyramine as substrate.
# [3] = Potentiation of L-tryptophan, L-dopa and tryptamine; conditions: in vivo
# Description: as §1
# [4] = Interaction with salbutamol-induced hypoactivity; format: in vivo
# Description: as §1
# [5] = test system: rat cerebral MAO A and B; experiment: MAO inhibitory activity at the biochemical level (reversibility and selectivity)
# Description: To determine MAO inhibitory activity at the biochemical level the following tests are used:
# 1. "In vitro inhibition" of rat cerebral MAO A and B giving I50 values for the two forms of the enzyme. Male Wistar rats (200 g) were used. Brains were obtained by decapitation and were homogenized. As substrates of the enzymes ^14 C-5-hydroxytryptamine oxalate 54 mCi/mmol and ^14 C-β-phenylethylamine were used. The residual enzymatic activities were referred to the activities in absence of MAO inhibitor (100%).
# 2. "Ex vivo inhibition" of rat cerebral MAO A and B after single dosing.
# This gives the degree of inhibition in vivo of both forms of the enzyme and variation of this inhibition with time after treatment with a single dose. The compounds were administered intraperitoneally to male Wistar rats (175 g.) at a dose of 5 mg/kg in 1 ml/kg (H2 O). Animals were sacrificed by decapitation 24 h. and 7 days after treatment and brains were removed and homogenized. Enzymatic activities determined in treated animals, were compared with the activities in control animals (100%).
# 3. "Ex vivo" inhibition of rat cerebral MAO A and B after repeated dosing.
# Male Wistar rats (175 g) were used.
# The compounds were administered once daily intraperitonally for 7 days at a dose of 0.5 and 1 mg/kg in 1 ml/kg […]. […]
# [6] = Behavioural Despair (Porsolt's test); format: in vivo
# Protocol: The pharmacological profile was carried out assessing the antidepressant activity with the following tests:
# Behavioural Despair (Porsolt et al. Arch. Int. Pharmacodyn; 229:327-336, 1977),
# [7] = "Cheese effect" by tyramine potentiation; conditions: in vivo
# Protocol: The secondary effects were studied mainly on the cardiovascular system, and the effects on the arterial pressure, heart rate and rhythm, P-R interval and isolated organ (rabbit aortic rings and isolated atria), were evaluated both after acute and chronic treatments. In the same way, the "cheese effect" was studied by means of the tyramine potentiation.
# [8] = test system: α-adrenergic receptors; experiment: Effects of chronic treatment on α2 receptors; format: in vivo; conditions: chronic administration in the rat
# Protocol: Effects of chronic treatment on α2 -, β- and 5-HT2 receptors. The test compounds, at a dose of 10 mg/kg/day i.p., were administered for 21 days to Wistar male rats (250±2.4 g). After treatment the animals were killed, brains were dissected and cortices were scraped from the dorsal surface of the […]. ^3 H UK 14304, ^3 H Dihydroalprenalol and ^3 H Ketanserin were used as ligands in the binding studies.
# [9] = test system: reuptake of 5-HT; experiment: Reuptake of 5-HT in vitro, crude synaptosomal preparation; format: biochemical, rat
# Protocol: Influence on the reuptake of monoamines "in vitro" was also studied. The effect of the compounds on the reuptake of 5-HT noradrenaline and dopamine was studied using Wistar male rats (350±2.5 g). They were kept under controlled light and temperature conditions and fed "ad libitum" until killed. The animals were killed by decapitation and brains were frozen and stored at -20° C. prior to analysis. Brains were dissected on an ice-filled petri dish. The cortices for 5-HT and noradrenaline assay and striatum (including caudate nucleus, putamen and globus pallidus) for dopamine assay were immediately weighed and homogenized. […] All drugs used in the study were dissolved in the incubation medium in a concentration range 10^-4 to 10^-8 M and were preincubated with the crude synaptosomal preparation obtained from the treated brains, for 5 min. at 37° C. or 0° C. before the addition of the labelled substrate.
structure (smiles),measurement,setting,value
"C#CCN(C)Cc1cc2cc(OC)ccc2n1C [(l), N-methyl-N-propargyl-2-(1-methyl-5-methoxy-indolyl)methylamine]",ED50,[1],27 mg/kg
same,IC50,[2],891 nM
same,"Potentiation of effects of L-tryptophan, L-dopa and tryptamine",[3],confirm the MAO inhibitory activity
same,"Hypoactivity by salbutamol, acute treatment",[4]; acute treatment,not modifying it
same,"Hypoactivity by salbutamol, chronic treatment",[4]; chronic treatment (14 days),antagonized
same,"Type of MAO inhibition (reversibility, selectivity)",[5],irreversible and selective inhibitor of MAO A
same,minimal effective dose,"[6]; acute treatment, read-out: Porsolt's test MED, acute",50 mg/kg
same,minimal effective dose,"[6]; chronic treatment, read-out: Porsolt's test MED, chronic",20 mg/kg
same,Persistence of activity in Porsolt's test,[6]; in vivo,at least 24 hours
same,"""Cheese effect""",[7],"some ""cheese effect"""
same,Modifications on α-adrenergic receptors,[8],not statistically significant
same,Inhibition of the reuptake of 5-HT,[9],potent inhibitor
same,Potency as inhibitor of 5-HT reuptake relative to chlorimipramine or imipramine,[9],much higher
